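A five-concentration, 48-hour dose response in 96-well plates underlies each endpoint, interpolated linearly between surrounding concentrations. Here, GI50 denotes the concentration required for 50% inhibition of growth.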 Activity calls are given as the source filed them. Cut-off read from the data, not from the text of the source: active = GI50 up to about 1.1 µM and inactive = higher.
Columns and labels:
Experiment in all cases: growth of human tumour cells (NCI), 48 h
[1] = test system: SNB-19
[2] = test system: OVCAR-8
[3] = test system: U-251
[4] = test system: NCI-H460
[5] = test system: RPMI-8226
[6] = test system: SK-MEL-2
[7] = test system: HOP-62
[8] = test system: K562
[9] = test system: LOX IMVI
[10] = test system: SK-MEL-5
[11] = test system: Hs-578T
[12] = test system: BT-549
[13] = test system: UO-31
[14] = test system: 786-0
[15] = test system: KM12
[16] = test system: HOP-92
[17] = test system: SK-MEL-28
[18] = test system: SF-268
[19] = test system: SF-539
[20] = test system: A549
[21] = test system: SN12C
[22] = test system: T47D
[23] = test system: NCI-H226
[24] = test system: SW-620
[25] = test system: HT-29
[26] = test system: IGROV-1
[27] = test system: A498
[28] = test system: HL-60
[29] = test system: SNB-75
[30] = test system: CAKI-1
[31] = test system: MOLT-4
[32] = test system: HCC 2998
[33] = test system: CCRF-CEM
[34] = test system: HCT-15
[35] = test system: MDA-MB-435
[36] = test system: OVCAR-4
[37] = test system: DU-145
[38] = test system: SK-OV-3
[39] = test system: M14
[40] = test system: MCF7
[41] = test system: HCT-116
[42] = test system: PC-3
[43] = test system: OVCAR-5
[44] = test system: EKVX
[45] = test system: TK-10
[46] = test system: UACC-257
[47] = test system: MDA-MB-231
[48] = test system: ACHN
[49] = test system: NCI/ADR-RES
[50] = test system: RXF 393
[51] = test system: Malme-3M
[52] = test system: UACC-62
[53] = test system: NCI-H23
[54] = test system: SF-295
[55] = test system: OVCAR-3
[56] = test system: COLO 205
[57] = test system: SR
[58] = test system: NCI-H522

Measured: GI50

CCOC(=O)c1c(SC)nc(-c2ccc(Cl)cc2)sc1=N.[O-][Cl+3]([O-])([O-])O
22.9 µM: [34]
inactive: [1] 94.4 µM | [2] 23.5 µM | [3] 37.6 µM | [4] 26 µM | [5] 37.2 µM | [6] 20.2 µM | [7] 30.1 µM | [8] 34.4 µM | [9] 36.4 µM | [10] 15.2 µM | [11] 27.9 µM | [12] 30 µM | [13] 33.8 µM | [14] 27.3 µM | [15] 30.8 µM | [16] 80.2 µM | [17] 61.9 µM | [18] 29.4 µM | [19] 32.1 µM | [20] 37.7 µM | [21] 44.4 µM | [22] 31.9 µM | [23] 25.9 µM | [24] 48 µM | [25] 25.8 µM | [26] 20.8 µM | [27] 31.5 µM | [28] 35 µM | [29] 25.1 µM | [30] 35.5 µM | [31] 26.4 µM | [32] 22.7 µM | [33] 39.9 µM | [35] 34 µM | [36] 30.8 µM | [37] 40.9 µM | [38] 37.2 µM | [39] 45.4 µM | [40] 29 µM | [41] 23.1 µM | [42] 26.1 µM | [43] 59.2 µM | [44] 22 µM | [45] 44.3 µM | [46] 34.6 µM | [47] 41.7 µM | [48] 40.1 µM | [49] 23.7 µM | [50] 33.9 µM | [51] 20.5 µM | [52] 30.8 µM | [53] 22.6 µM | [54] 28.2 µM | [55] 33.2 µM | [56] 21.8 µM

CC(C)[Si]1(C(C)C)OCC2OC3(CO)C(Oc4nc(=O)ccn43)C2O[Si](C(C)C)(C(C)C)O1 (stereo not given)
15 µM: [34]
inactive: [1] 15.9 µM | [2] 14.1 µM | [3] 14.2 µM | [4] 15 µM | [5] 5.81 µM | [6] 16.3 µM | [7] 15 µM | [8] 21 µM | [57] 15.5 µM | [9] 15 µM | [10] 13.5 µM | [11] 22.4 µM | [12] 11.6 µM | [13] 13.9 µM | [14] 14.6 µM | [15] 13.3 µM | [16] 16.5 µM | [17] 15 µM | [18] 17 µM | [19] 15 µM | [22] 9.59 µM | [23] 15.2 µM | [24] 15.5 µM | [25] 12.4 µM | [26] 17.3 µM | [28] 6.17 µM | [29] 15 µM | [30] 15.7 µM | [31] 7.55 µM | [32] 12.5 µM | [33] 5.14 µM | [35] 15 µM | [36] 13.1 µM | [37] 14 µM | [38] 20 µM | [39] 14.8 µM | [40] 5.9 µM | [41] 10.9 µM | [42] 5.4 µM | [44] 17.1 µM | [45] 16.6 µM | [46] 14.7 µM | [47] 10.2 µM | [48] 15.5 µM | [49] 17.4 µM | [50] 5.57 µM | [52] 12.8 µM | [53] 15.5 µM | [54] 15 µM | [56] 9.44 µM

O=C(CNC(=O)OCc1ccccc1)NCCCCC(NC(=O)OCc1ccccc1)C(=O)NC(CCCCNC(=O)CNC(=O)OCc1ccccc1)C(=O)OCc1ccccc1 (stereo not given)
inactive: [1] > 62.5 µM | [2] > 62.5 µM | [3] > 62.5 µM | [4] > 62.5 µM | [5] > 62.5 µM | [6] > 62.5 µM | [7] > 62.5 µM | [8] > 62.5 µM | [57] > 62.5 µM | [9] > 62.5 µM | [10] > 62.5 µM | [12] > 62.5 µM | [13] > 62.5 µM | [14] > 62.5 µM | [17] > 62.5 µM | [18] > 62.5 µM | [20] > 62.5 µM | [21] > 62.5 µM | [22] > 62.5 µM | [23] > 62.5 µM | [24] > 62.5 µM | [25] > 62.5 µM | [26] > 62.5 µM | [27] > 62.5 µM | [28] > 62.5 µM | [29] > 62.5 µM | [30] > 62.5 µM | [31] > 62.5 µM | [32] > 62.5 µM | [33] > 62.5 µM | [35] > 62.5 µM | [36] > 62.5 µM | [37] > 62.5 µM | [39] > 62.5 µM | [40] > 62.5 µM | [41] > 62.5 µM | [42] > 62.5 µM | [43] > 62.5 µM | [45] > 62.5 µM | [46] > 62.5 µM | [47] > 62.5 µM | [48] > 62.5 µM | [58] 26.9 µM | [51] > 62.5 µM | [52] > 62.5 µM | [53] > 62.5 µM | [55] > 62.5 µM
> 62.5 µM: [34]
